Measured values taken from patent US20220218734A1, “COMBINATIONS OF THERAPEUTIC AGENTS FOR TREATING UVEAL MELANOMA” (Universiteit Gent, priority 2019, published 2022).

Assays:
[1] = system: UM cell lines 92.1 and OMM1; assay: ASO-compound combination validation, Excess over Bliss (viability and confluence); type: cell-based, human; conditions: compound combined with LNA ASO 3 (50 nM), 72 h, viability and confluence read outs; >0 synergism
Protocol: For the validation experiments, uveal melanoma cell lines 92.1 and OMM1 were seeded in 96 well plates (Corning costar 3596) at a density of 5000 cells/well and were allowed to settle overnight. Subsequently, the cells were transfected using lipofectamine 2000 (Life Technologies) with 50 or 100 nM LNA ASO 3 or LNA NTC and treated with various concentrations of the compounds and with a final DMSO concentration of maximum 0.1%. The compounds were added to the wells using the HP D300e Digital dispenser (Tecan). Control cells were transfected with LNA NTC ASO and treated with DMSO.
Cell viability was also examined using a CellTiter-Glo assay (Promega). Before initiating the assay, the culture plates and reconstituted assay buffer were placed at room temperature for 30 minutes. Next, the culture medium was replaced by 200 μl fresh culture medium—- assay buffer (1:1) mix. To induce complete cell lysis, the plates were shaken for 10 min. 100 μl from each well was subsequently transferred to an opaque 96-well plate (Nunc), which was measured with a GloMax 96 Microplate Luminometer (Promega). The CellTiter-Glo assay was performed on various predefined timepoints.
For real-time analysis, IncuCyte Zoom system and IncuCyte S3 system (Essen BioScience) were used. Cells were seeded and treated as described above. After treatment, the culture plate was incubated in an IncuCyte Zoom system or IncuCyte S3 system at 37° C. in a humidified 5% CO2 incubator. Phase contrast whole well images were captured every 3 h. The IncuCyte ZOOM and IncuCyte S3 software (Essen BioScience) were utilized in real-time to measure % confluence, as a proxy for proliferation.
Bliss independence (BI) scores were calculated to determine ASO-compound interactions. The predictive performance (BI score) is then compared to the observed drug interaction data measured by the Excess over Bliss. Excess over Bliss scores>0 indicate drug synergism, Excess over Bliss scores=0 indicate additive effects and Excess over Bliss scores<0 indicate drug antagonism.

[2] = system: 4E-BP1 (T37/T46); assay: Western blot for 4E-BP1 and phospho-4E-BP1; type: cell-based, human; conditions: 92.1, 24 h, GDC-0349 0.625 μM or 1.25 μM; for phosphorylated 4E-BP1 (T37/T46) levels: ASO 3 50 nM
Protocol: (§1) Cells were lysed in RIPA lysis buffer (5 mg/ml sodium deoxycholate, 150 mM NaCl, 50 mM Tris-HCl pH 7.5, 0.1% SDS solution, 1% NP-40) supplemented with protease and/or phosphatase inhibitors Protein concentrations were determined with the BCA protein assay (Bio-Rad). In total, 35 μg of protein lysate was loaded onto an SDS-PAGE gel (10% Pre-cast, Bio-Rad), run at 100 V for 1 h and subsequently blotted onto a nitrocellulose membrane. Antibodies against phospho-S6 Ribosomal Protein (Ser235/236) (#2211, 1:1000 dilution), phospho-4E-BP(Thr37/46) (#2855, 1:1000 dilution), S6 Ribosomal Protein (#2317, 1:1000 dilution) and 4E-BP1 (#9644, 1:1000 dilution) were purchased from Cell Signaling Technology. HRP-labeled anti-rabbit (7074 S, Cell Signaling, 1:10 000 dilution) and anti-mouse (7076P2, Cell Signaling, 1:10 000 dilution) antibodies were used as secondary antibodies. Anti-Vinculin antibody (V9131, Sigma-Aldrich, 1:10 000 dilution) was used as loading control. The antibodies were diluted in BSA/TBST (5% BSA in TBS with 0.1% Tween20) and antibody binding with membrane was evaluated using the SuperSignal West Dura Extended Duration Substrate (ThermoFisher Scientific) or SuperSignal West Femto Maximum Sensitivity Substrate (ThermoFisher Scientific). Imaging was performed by means of the Amersham Imager 680 (GE Healthcare). Image J was used for the quantification of the blots.

[3] = system: UM cell lines 92.1 and OMM1; assay: SUnSET puromycin incorporation (translation rate); type: cell-based, human; conditions: 92.1 and OMM1, 24 h; ASO 3 50 nM, GDC-0349 0.625 μM
Protocol: Cells were seeded in T75 culture flasks (Cellstar) at a density of 1 170 000 cells/T75 flask 24 h prior to transfection. The cells were transfected with 50 nM LNA ASO 3 or NTC using lipofectamine 2000, followed by GDC-0349 (0.625 μM) or DMSO treatment. 24 h later, cells were washed in 1× phosphate buffer saline (PBS) and subsequently incubated with puromycin containing media (InvivoGen, 10 μg/ml) for 10 min. Puromycin incorporation is a proxy for the mRNA translation rate in vitro and was measured by Western blotting using an anti-puromycin antibody (MABE343, clone 12D10, Merck Millipore, 1:10 000). The antibody was diluted in Milk/TB ST (5% non-fat dry milk in TBS with 0.1% Tween20). Imaging was performed by means of the Amersham Imager 680 (GE Healthcare). An equal protein loading was verified using a ponceau S staining (Sigma Aldrich). Image J was used for the quantification of the blots.

[4] = system: UM cell lines 92.1 and OMM1; assay: Differential gene expression analysis by RNA sequencing; type: cell-based, human; conditions: 92.1 and OMM1, 24 h; ASO 3 50 nM, GDC-0349 0.625 μM
Protocol: RNA sequencing was performed on quadruplicates of NTC (50 nM), ASO 3 (50 nM), GDC-0349 (0.625 μM) and ASO 3 (50 nM)+GDC-0349 (0.625 μM) treated 92.1 and OMM1 cells. Libraries for RNA sequencing were prepared using the Quant Seq 3′ end library prep […] and quantified on a Qubit 2.0 Fluorometer prior to single-end sequencing with 75 bp read length on a NextSeq 500 sequencer (Illumina). Reads were mapped to the human genome (hg38) and gene expression was quantified using HTSeq. Differentialy expressed genes were identified using DESeq2.

[5] = system: UM cell line OMM1; assay: Seahorse XF Cell Mito Stress Test; type: cell-based, human; conditions: GDC-0349 0.625 μM, ASO 3 50 nM, combination compared to single ASO 3 treatment
Protocol: Cells were seeded in T75 culture flasks (Cellstar) at a density of 1 170 000 cells/T75 flask 24 h prior to transfection. The cells were transfected with 50 nM ASO 3 or NTC using lipofectamine 2000, followed by GDC-0349 (0.625 μM) treatment. Four hours later, 25 000 cells were transferred to Seahorse XFp Cell Culture Miniplates (Agilent) and were allowed to settle overnight. Subsequently, oxygen consumption rates were measured in triplicates for each condition using the Seahorse XFp device (Agilent) according to the standard mito stress test procedures in seahorse assay medium supplemented with 14.3 mM glucose, 1 mM pyruvate and 2 mM glutamine (Sigma), and cells were sequentially challenged with 1 μM oligomycin, 1 μM carbonyl cyanide 4-(trifluoromethoxy)-phenylhydrazone (FCCP) and 0.5 μM of a rotenone antimycin A mix (Agilent). Following the assay, protein concentrations were calculated based upon absorbance reading at 280 nm (Biodrop, Isogen Lifescience) for normalization of the results. Spare respiratory capacity was calculated as the difference between maximal and the basal oxygen consumption rate. Relative oxygen consumption rates are relative compared to NTC values.

[6] = system: rpS6 (S235/S236); assay: Western blot for rpS6 and phospho-rpS6; type: cell-based, human; conditions: 92.1, 24 h, GDC-0349 0.625 μM or 1.25 μM; for phosphorylated rpS6 (S235/S236) levels: ASO 3 50 nM
Protocol: as §1

[7] = system: SAMMSON; assay: SAMMSON expression / knockdown by RT-qPCR in UM cells; type: cell-based, human; conditions: in most cell lines
Protocol: Total RNA was extracted using the miRNeasy kit (Qiagen) according to the manufacturer's instructions, including on-column DNase treatment. The Nanodrop (ThermoFisher Scientific) was used to determine RNA concentrations and cDNA synthesis was performed using the iScript Advanced cDNA synthesis kit (Bio-Rad) using a mix containing 200 ng of RNA, 4 μl of 5× iScript advanced reaction buffer and 1 μl of iScript advanced reverse transcriptase. The qPCR mix contains 2 μl of cDNA (5 ng), 2.5 μl SsoAdvanced Universal SYBR Green Supermix (Bio-Rad), 0.25 μl forward (5 μM, IDT) and reverse primer (5 μM, IDT) and was analyzed on a LC-480 device (Roche). Expression levels were normalized using expression data of at least 2 stable reference genes out of 4 tested reference genes (SDHA^9,10, HPRT1^11,12, UBC^13 and TBP^14,15). Analysis was performed using the qbase+software (https://www.qbaseplus.com).

[8] = system: UM patient derived xenografts (PDX) model (MP46); assay: Tumor growth in UM patient derived xenograft model; type: in vivo, mouse
Protocol: Since SAMMSON expression is not conserved across species, an UM patient derived xenografts (PDX) model (MP46) was used to investigate the effect on tumor growth in vivo upon SAMMSON knock down. LNA ASO 3 and LNA non targeting control (NTC) were subcutaneous injected at a dose of 10 mg/kg three times in the first week and twice per week in the second and third week.

CC(=O)Nc1ccc(C(=O)Nc2ccccc2N)cc1 [CI-994, N-(2-aminophenyl)-4-acetamidobenzamide]
Excess over Bliss score (synergism) [1]: synergistic

CCNC(=O)Nc1ccc(-c2nc3c(c(N4CCOC[C@@H]4C)n2)CCN(C2COC2)C3)cc1 [GDC-0349, 3-ethyl-1-(4-{4-[(3S)-3-methylmorpholin-4-yl]-7-(oxetan-3-yl)-5H,6H,7H,8H-pyrido[3,4-d]pyrimidin-2-yl}phenyl)urea]
phosphorylated 4E-BP1 (T37/T46) levels [2]: dose dependent reduction
total 4E-BP1 levels [2]: remain unaffected
translation rate (incorporated puromycin signal) [3]: translation inhibition
Excess over Bliss score (synergism) [1]: synergistic
expression pattern of differentially expressed genes compared to NTC ASO [4]: not affecting the expression of many of these genes
mitochondrial function / oxidative phosphorylation (oxygen consumption rate) [5]: does not alter the mitochondrial function
phosphorylated rpS6 (S235/S236) levels [6]: dose dependent reduction
total rpS6 levels [6]: remain unaffected

Cc1cc(C)c(-c2csc(NC(=O)c3ccccc3)n2)c(C)c1 [INH-6, N-[4-(2,4,6-trimethylphenyl)-2-thiazolyl]-benzamide]
Excess over Bliss score (synergism) [1]: synergistic

COc1cc(NS(C)(=O)=O)ccc1Nc1c2ccccc2nc2ccccc12 [amsacrine, N-{4-[(acridin-9-yl)amino]-3-methoxyphenyl}methanesulfonamide]
Excess over Bliss score (synergism) [1]: synergistic

Oc1c(I)cc(Cl)c2cccnc12 [clioquinol, 5-chloro-7-iodoquinolin-8-ol]
Excess over Bliss score (synergism) [1]: synergistic

Nc1ccccc1NC(=O)c1ccc(CNC(=O)OCc2cccnc2)cc1 [entinostat, (pyridin-3-yl)methyl N-({4-[(2-aminophenyl)carbamoyl]phenyl}methyl)carbamate]
Excess over Bliss score (synergism) [1]: synergistic

CC#C[C@]1(O)CC[C@H]2[C@@H]3CCC4=CC(=O)CCC4=C3[C@@H](c3ccc(N(C)C)cc3)C[C@@]21C [mifepristone, (1S,3aS,3bS,10R,11 aS)-10-[4-(dimethylamino)phenyl]-1-hydroxy-11a-methyl-1-(prop-1-yn-1-yl)-1H,2H,3H,3aH,3bH,4H,5H,7H,8H,9H,10H,11H,11aH-cyclopenta[a]phenanthren-7-one]
Excess over Bliss score (synergism) [1]: synergistic

LNA ASO 3: LNA gapmer antisense oligonucleotide targeting SAMMSON, GTGTGAACTTGGCT (SEQ ID NO: 1), purchased from Qiagen (LNA gapmer from Qiagen, pattern not given here)
phosphorylated 4E-BP1 (T37/T46) levels [2]: less phosphorylated 4E-BP1
translation rate (incorporated puromycin signal) [3]: translation inhibition
expression pattern of differentially expressed genes compared to NTC ASO [4]: reverses the expression pattern
knockdown and phenotypic effect compared to LNA ASO 11 [7]: more efficient knockdown and phenotypic effect
weight loss ([8]; subcutaneous 10 mg/kg LNA ASO 3, PDX mice): no weight loss
tumor growth ([8]; subcutaneous 10 mg/kg, three times in first week, twice per week in second and third week, compared to NTC treated PDX mice): significant tumor growth inhibition
phosphorylated rpS6 (S235/S236) levels [6]: doesn't affect the phosphorylation status of rpS6
